Experimental data: patent US10933141B2, “Formulations with reduced degradation of polysorbate” (Genentech, Inc., priority 2015, dated 2021)
Entries after “also recorded” stand apart in the source; their conditions may differ.

Columns and labels:
[1] = target: T1, Candida Antarctica Lipase B (CALB) (Moesziomyces antarcticus, UniProt P41365); assay: Enzymatic degradation of PS20 by CALB, PS20 by RP-ELSD; type: biochemical; details: for PS20 degradation (in words): 15% (w/v) excipient
T1 construct: purchased Sigma Aldrich Inc. (St. Louis, Mo.)
Method: (§1) Polysorbate concentration was determined using reverse phase ultra-performance liquid chromatography using evaporative light scattering detection (RP-ELSD). Samples were analyzed using an Agilent 1100 series high performance liquid chromatography system (HPLC) fitted with a Waters Oasis MAX cartridge column (20×2.1 mm, 30 μm particle size). The HPLC system was set up with a switching valve directing column flow-through to either waste or a Varian 380-LC evaporative light scattering detector set to 100° C. The mobile phases consisted of 2% formic acid in water (Pump A) and 2% formic acid in isopropanol (Pump B). The pump gradient was isocratic at 10% pump B during equilibration, linear to 20% pump B for 1 minute, isocratic at 20% pump B for 2.4 minutes, linear to 100% pump B for 0.1 minutes, isocratic at 100% pump B for 1.1 minutes, linear to 10% pump B for 0.1 minutes, and finally isocratic at 10% pump B for 1.9 minutes. The switching valve directed column flow-through to waste at the beginning of every injection, and then directed flow to the detector after 2.4 minutes until the end of the gradient. In order to quantitate the PS20 concentration, a standard curve was generated by injecting 20 μL of solutions containing between 0% w/v and 0.4% w/v PS20. For excipients which affected the migration time of PS20 through the column, PS20 standard curve solutions containing the relevant excipient were included in the analysis to facilitate accurate quantitation.
[…] Samples of 0.02% PS20 in pH 5.5 buffer containing either no additional excipient, 15% Sucrose, […] the enzymes porcine pancreatic lipase (PPL), lipoprotein lipase (LPL), Candida Antarctica lipase (CALB) and rabbit liver esterase (RLE) at room temperature. PPL samples were digested with 15 μg/mL enzyme for 4.5 hours. LPL samples were digested with 70 μg/mL enzyme for 5 hours. CALB samples were digested with 0.1 mg/mL immobilized enzyme for 1 hour. RLE samples were digested with 15 μg/mL enzyme for 5 hours. All digestions were conducted at room temperature.
PPL digestion was stopped by heat inactivation in an 85° C. water bath for 30 minutes. LPL and RLE digestion could not be stopped by heat inactivation, so the samples were analyzed immediately for PS20 content. CALB digestion was stopped by filtering out the immobilized enzyme beads. In order to permit particle formation, CALB samples were placed at 5° C. overnight. RLE and LPL samples were frozen at −20° C. overnight to impede enzymatic activity and were then thawed over ice immediately prior to particle analysis.
As described above, all samples were analyzed for PS20 content by high performance liquid chromatography (Agilent 1100 series) with an inline evaporative light scattering detector (Varian 380-LC series). Visible particle inspection was conducted on a Seidenader visual inspection instrument. Subvisible particle analysis was conducted on a HIAC 9703 particle counter.

[2] = Solubilization of existing visible and subvisible particles from enzymatic PS20 degradation (HIAC, Seidenader); type: physicochemical; details: for amount of SVP after excipient spiked into degraded PS20 solution: 0.05% PS20 degraded with 37.5 μg/mL PPL, 35.5 mM HP-α-CD or HP-γ-CD, 0.5-15% HP-β-CD, 5° C. overnight, HIAC
Method: Subvisible particles were measured using a HIAC 9703 particle counter equipped with an HRDL-150 detector and a 1 mL syringe. Performance of the instrument was verified with NIST-traceable 2 μm Polystyrene bead standards at 3000 counts/mL before each measurement session. The HIAC instrument was configured to a 10 mL/min flow rate, 0.1 mL tare volume, and 0.4 mL sample volume. The samples were analyzed using 4 runs of 0.4 mL sips, with the first run of each sample was discarded to prevent measurement error due to sample carryover. Results were reported as the average values for 1.4, 2, 5, 10, 15, and 25, 50 μm analysis filter sizes.
Vials were inspected for visible particulates using a Seidenader V90-T visual inspection unit (Markt Schwaben, Germany) with vial carriage tilted to 60 degrees. Visible particle inspection of samples was performed by placing the glass vials in the holder and rotating in the presence of a Tyndall light directed through the bottom of the vial. Pre-rotation (i.e., fast rotation) was first performed to agitate the liquids, suspend, and circulate particles. Following rotation and illumination, the particles are in motion and the light causes reflections of the particles that make them visible (i.e., Tyndall effect). Visible particles were then observed using a magnifying lens. Videos and photographs of visible particles were obtained using a Samsung (seoul, South Korea) Galaxy device.
Several excipients were tested for their ability to solubilize particles produced as a result of enzymatic PS20 degradation. Solutions of concentrated HP-α-CD, HP-β-CD, HP-γ-CD, SBE-β-CD, PVP, PEG 1500, sucrose, and methionine were prepared in triplicate in pH 5.5 buffer. Particles from enzymatic PS20 degradation were prepared. Three solutions of 0.05% PS20 in pH 5.5 buffer were enzymatically degraded with 37.5 μg/mL PPL for 4.5 hours at room temperature, followed by 30 minutes of heat inactivation at 85° C. The degraded PS20 solutions were placed at 5° C. to allow for crystallization of particles.
After particle formation in the degraded PS20 solutions, the remaining sample preparation was conducted in a 5° C. cold room to prevent the PS20 derived particles from dissolving. Each degraded PS20 solution was divided into 11 aliquots and concentrated excipient was spiked into each the aliquots. The final concentration of excipient in each sample was as follows: 5% sucrose, 10 mg/mL methionine, 5% PVP, 5% PEG 1500, 15% HP-β-CD, 5% HP-β-CD, 0.5% HP-β-CD, 35.5 mM HP-α-CD, 35.5 mM HP-γ-CD, and 35.5 mM SBE-β-CD. After the addition of each excipient, samples were left at 5° C. overnight. The following day, vials were inspected for visible particles under a Seidenader visual inspection instrument. Subvisible particle counts were measured using a HIAC 9703 particle counter.

[3] = Oxidative PS20 degradation with AAPH, PS20 by RP-ELSD; type: physicochemical; details: 15% (w/v) excipient; 5 mM AAPH at 40° C. for 24 hours; n=3
Method: as §1, with “The pump gradient was isocratic at 10% pump B during equilibration, linear to 20% pump B for 1 minute, isocratic at 20% pump B for 2.4 minutes, linear to 100% pump B for 0.1 minutes, isocratic at 100% pump B for 1.1 minutes, linear to 10% pump B for 0.1 minutes, and finally isocratic at 10% pump B for 1.9 minutes. The switching valve directed column flow-through to waste at the beginning of every injection, and then directed flow to the detector after 2.4 minutes until the end of the gradient.” left out
The ability of cyclodextrins to inhibit oxidative PS20 degradation was evaluated using 2,2′-Azobisisobutyramidinium (AAPH), which has been shown previously to degrade PS20 (Borisov et al., J. Pharm. Sci. 104:1005-1018 (2015)). […] Polysorbate 20 degradation was determined by RP-ELSD for samples oxidized with 5 mM AAPH at 40° C. for 24 hours containing no excipient (control), 15% (w/v) sucrose, and 15% (w/v) HP-β-CD.

[4] = 0.02 (w/v) PS20, CALB digestion (FIG. 9)

T1 sequence (P41365 26-342): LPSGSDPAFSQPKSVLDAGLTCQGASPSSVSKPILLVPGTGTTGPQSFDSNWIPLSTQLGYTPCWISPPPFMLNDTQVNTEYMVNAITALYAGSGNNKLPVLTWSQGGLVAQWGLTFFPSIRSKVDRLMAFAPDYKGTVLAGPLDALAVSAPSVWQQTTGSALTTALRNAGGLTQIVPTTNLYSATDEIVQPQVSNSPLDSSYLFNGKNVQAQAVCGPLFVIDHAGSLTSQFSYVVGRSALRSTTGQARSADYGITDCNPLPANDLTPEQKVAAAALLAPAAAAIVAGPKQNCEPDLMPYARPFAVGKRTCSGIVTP

| Compound | PS20 degradation (in words) [1, 4] | amount of SVP after excipient spiked into degraded PS20 solution [2] | Polysorbate 20 (Relative %) ([1]; 15% w/v HP-β-CD, 0.02% PS20, pH 5.5, 0.1 mg/mL immobilized CALB, 1 hour, room temperature) | decrease in relative percent PS20 [3] | visible particles after spiking excipient ([2]; 15% (w/v) HP-β-CD, PS20 particles from PPL digestion) | PS20 degradation ([1]; 15% HP-γ-CD, 0.02 (w/v) PS20, CALB digestion (FIG. 9)) |
| --- | --- | --- | --- | --- | --- | --- |
| 2-hydroxypropyl-α-cyclodextrin [HP-α-CD] | no significant PS20 degradation | significantly reduce the amount of SVP |  |  |  |  |
| 2-hydroxypropyl-β-cyclodextrin [HP-β-CD] | no significant PS20 degradation | significantly reduce the amount of SVP | 85.7% | 3.6% | immediate solubilization of visible particles; also recorded: no visible particles |  |
| 2-hydroxypropyl-γ-cyclodextrin [HP-γ-CD] |  | significantly reduce the amount of SVP |  |  |  | ~82% |
| OC[C@H]1O[C@@](CO)(O[C@H]2O[C@H](CO)[C@@H](O)[C@H](O)[C@H]2O)[C@@H](O)[C@@H]1O [sucrose, reference compound] | significant decreases in PS20 concentration |  |  | 9.8% |  |  |
